From ChEMBL document CHEMBL1201862, “PubChem BioAssay data set” (2004)
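Values below derive from 48-hour exposures of cells grown in 96-well plates, with endpoints linearly interpolated between the two concentrations bracketing the appropriate inhibition level. Abbreviation: GI50, concentration required for 50% inhibition of growth.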 The source made the active and inactive calls. Cut-off read from the data, not from the text of the source: active = GI50 up to about 1.1 µM and inactive = higher.

Assays:
Assay in all cases: inhibition of tumour cell growth, NCI panel, 48 h
HCC 2998 = tested on: HCC 2998
NCI-H522 = tested on: NCI-H522
RXF 393 = tested on: RXF 393
PC-3 = tested on: PC-3
NCI-H460 = tested on: NCI-H460
CCRF-CEM = tested on: CCRF-CEM
UACC-257 = tested on: UACC-257
UO-31 = tested on: UO-31
HL-60 = tested on: HL-60
LOX IMVI = tested on: LOX IMVI
ACHN = tested on: ACHN
SK-OV-3 = tested on: SK-OV-3
KM12 = tested on: KM12
M14 = tested on: M14
OVCAR-3 = tested on: OVCAR-3
HT-29 = tested on: HT-29
SF-268 = tested on: SF-268
NCI-H226 = tested on: NCI-H226
EKVX = tested on: EKVX
NCI-H23 = tested on: NCI-H23

Structure (SMILES) | GI50 (HCC 2998) | GI50 (NCI-H522) | GI50 (RXF 393) | GI50 (PC-3) | GI50 (NCI-H460) | GI50 (CCRF-CEM) | GI50 (UACC-257) | GI50 (UO-31) | GI50 (HL-60) | GI50 (LOX IMVI) | GI50 (ACHN) | GI50 (SK-OV-3) | GI50 (KM12) | GI50 (M14) | GI50 (OVCAR-3) | GI50 (HT-29) | GI50 (SF-268) | GI50 (NCI-H226) | GI50 (EKVX) | GI50 (NCI-H23)
c1cc(CSSCc2ccncc2)ccn1 | 22.9 µM (inactive) | 12.9 µM (inactive) | 23.6 µM (inactive) | 21.7 µM (inactive) | 23.7 µM (inactive) | 1.24 µM (inactive) | 15.9 µM (inactive) | 8.99 µM (inactive) | 13.7 µM (inactive) | 10.6 µM (inactive) | 42.2 µM (inactive) | 23.1 µM (inactive) | 29.6 µM (inactive) | 11.3 µM (inactive) | 33.6 µM (inactive) | 24.2 µM (inactive) | 28.4 µM (inactive) | 30.6 µM (inactive) | 54.8 µM (inactive) | 22 µM (inactive)
O=C(c1ccc(Cl)cc1)c1cnc(Nc2ccccc2Cl)s1 | 29 µM (inactive) | 23 µM (inactive) | 20.7 µM (inactive) | 24.4 µM (inactive) | 25.3 µM (inactive) | > 100 µM (inactive) | 21 µM (inactive) | 21.6 µM (inactive) | > 100 µM (inactive) | 36 µM (inactive) | 18.9 µM (inactive) | 23 µM (inactive) | 27.2 µM (inactive) | 19.7 µM (inactive) | 18.3 µM (inactive) | 27.1 µM (inactive) | 26.4 µM (inactive) | 25.8 µM (inactive) | 22.9 µM (inactive) | 22 µM (inactive)
O=C(O)CCCSc1nc2ccccc2s1 | > 100 µM (inactive) | > 100 µM (inactive) | > 100 µM (inactive) | > 100 µM (inactive) | > 100 µM (inactive) | > 100 µM (inactive) | > 100 µM (inactive) | > 100 µM (inactive) | > 100 µM (inactive) | > 100 µM (inactive) | > 100 µM (inactive) | > 100 µM (inactive) | > 100 µM (inactive) | > 100 µM (inactive) | > 100 µM (inactive) | > 100 µM (inactive) | > 100 µM (inactive) | > 100 µM (inactive) | > 100 µM (inactive) | > 100 µM (inactive)
CCCCCC(=O)Nc1[nH]nnc1C(N)=O | > 100 µM (inactive) | > 100 µM (inactive) | > 100 µM (inactive) | > 100 µM (inactive) | > 100 µM (inactive) | > 100 µM (inactive) | > 100 µM (inactive) | > 100 µM (inactive) | > 100 µM (inactive) | > 100 µM (inactive) | > 100 µM (inactive) | > 100 µM (inactive) | > 100 µM (inactive) | > 100 µM (inactive) | > 100 µM (inactive) | > 100 µM (inactive) | > 100 µM (inactive) | > 100 µM (inactive) | > 100 µM (inactive) | > 100 µM (inactive)
Cc1ccc(NCCN(C)C)c2c(=O)c3cc(O)ccc3sc12 | 3.79 µM (inactive) | 4.33 µM (inactive) | 1.22 µM (inactive) | 1.22 µM (inactive) | 0.0516 µM (active) | 0.284 µM (active) | 8 µM (inactive) | 4.23 µM (inactive) | 0.416 µM (active) | 1.05 µM (active) | 1 µM (active) | 3.33 µM (inactive) | 4.28 µM (inactive) | 4.88 µM (inactive) | 9.33 µM (inactive) | 2.49 µM (inactive) | 4.35 µM (inactive) | 4.48 µM (inactive) | 12.4 µM (inactive) | 2.22 µM (inactive)
CCOC(=O)CC[C@@H](NC(=O)c1ccc(NCc2ccc3nc(OC)c(OC)nc3c2)cc1)C(=O)OCC | 33.6 µM (inactive) | 19.9 µM (inactive) | 25.5 µM (inactive) | 56.8 µM (inactive) | 20.6 µM (inactive) | 32.6 µM (inactive) | 15.7 µM (inactive) | 26.5 µM (inactive) | 14.8 µM (inactive) | 38.9 µM (inactive) | 22.3 µM (inactive) | > 100 µM (inactive) | > 100 µM (inactive) | 16.3 µM (inactive) | 17.3 µM (inactive) | > 72.8 µM (inactive) | 33.4 µM (inactive) | 58.7 µM (inactive) | > 78.3 µM (inactive) | > 83.2 µM (inactive)
CC(=O)c1cccc2c1CC1(C2)Cc2ccc3c(c2C1=O)CCC3 (stereo not given) | 15 µM (inactive) | 17 µM (inactive) | 33 µM (inactive) | 32.5 µM (inactive) | 33.3 µM (inactive) | 34.8 µM (inactive) | 14.8 µM (inactive) | 30.3 µM (inactive) | 3.64 µM (inactive) | 27.5 µM (inactive) | 47.9 µM (inactive) | 83.6 µM (inactive) | 29.6 µM (inactive) | 46.7 µM (inactive) | 23.5 µM (inactive) | 23.1 µM (inactive) | 40.7 µM (inactive) | 23.9 µM (inactive) | 17.9 µM (inactive) | 67.8 µM (inactive)
O=[N+]([O-])c1cccc2nc3ccccc3c(NCCC[N+]3([O-])CCOCC3)c12 | 0.0128 µM (active) | 0.0631 µM (active) | 0.106 µM (active) | 0.177 µM (active) | 0.0942 µM (active) | 0.0933 µM (active) | 0.351 µM (active) | 1.67 µM (inactive) | 0.245 µM (active) | 0.281 µM (active) | 0.65 µM (active) | 0.281 µM (active) | 0.187 µM (active) | 0.238 µM (active) | 0.17 µM (active) | 0.0859 µM (active) | 0.164 µM (active) | 0.186 µM (active) | 0.177 µM (active) | 0.0791 µM (active)
CCCCCC(/C=C/C1CCC(=O)C1)OCOCCOC (stereo not given) | 64.4 µM (inactive) | 17.1 µM (inactive) | 34 µM (inactive) | 42.1 µM (inactive) | 67.9 µM (inactive) | 35.3 µM (inactive) | 26.9 µM (inactive) | 17.9 µM (inactive) | 42.1 µM (inactive) | 24.3 µM (inactive) | 22.3 µM (inactive) | > 100 µM (inactive) | 45.9 µM (inactive) | 34 µM (inactive) | 41.4 µM (inactive) | 23.4 µM (inactive) | 29.3 µM (inactive) | 29.1 µM (inactive) | 54.1 µM (inactive) | 55.2 µM (inactive)
COc1ccc(-c2oc3cc(OC)c(OC)c(OC)c3c(=O)c2OC)cc1OC [HEXAMETHOXYFLAVONE] | > 100 µM (inactive) | > 100 µM (inactive) | > 100 µM (inactive) | > 100 µM (inactive) | > 100 µM (inactive) | > 100 µM (inactive) | > 100 µM (inactive) | 79.1 µM (inactive) | 20.8 µM (inactive) | > 100 µM (inactive) | > 100 µM (inactive) | > 100 µM (inactive) | > 100 µM (inactive) | > 100 µM (inactive) | > 100 µM (inactive) | > 100 µM (inactive) | > 100 µM (inactive) | > 100 µM (inactive) | > 100 µM (inactive) | > 100 µM (inactive)
